Results published in US12138034B2, “Gastroretentive articles for alcohol sensing” (priority 2020, dated 2024).
“Also recorded” adds a separate entry of the source.

Columns and labels:
Assay type in all cases: physicochemical
[1] = In vitro drug release from individual drug-polymer pills; details: 37° C., 200 rpm, 50 mL fluid; varying PCL molecular weight, coating, drug loading, SA/V ratio, excipients
Excerpt: FIGS. 11A-11E show fabrication and in vitro release of direct-acting antivirals (DAAs) from individual drug-polymer pills, according to one set of embodiments. FIG. 11A. Drug-polymer pills are made by mixing drug with either silicone or poly(ε-caprolactone) (PCL) and then casting into a Petri dish or a three-dimensional (3-D) printed mold. Drug-silicone pills are extracted using a biopsy punch, and drug-PCL pills are extracted with a razor blade. Pills are then spray-coated with a pan coater. A cross-sectional image of a PCL-coated drug-PCL pill is shown. FIG. 11B. In vitro release of sofosbuvir from a drug pill in water with varying molecular weight of PCL. FIG. 11C. In vitro release of daclatasvir from a drug pill in water with varying molecular weight of PCL and PCL coating. FIG. 11D. In vitro release of ledipasvir from a drug pill in acetonitrile with varying silicone hardness. FIG. 11E. In vitro release of ribavirin from a drug pill in water with molecular weight of PCL and drug loading percentage. Error bars represent SD for n=3 samples.
LA-DAAS prototyping and in vitro drug release. LA-DAAS were assembled and in vitro drug release was evaluated by High-Performance Liquid Chromatography (HPLC) as previously described, with modifications including novel formulations for DAAs (FIGS. 14A-14B).(17) The following drugs were acquired: sofosbuvir (Hefei Hirisun Pharmatech Co., Ltd, Hefei, China), daclatasvir and ledipasvir (Hangzhou APIChem Technology Co, Ltd., Hangzhou, Zhejiang, China), and ribavirin (ChemShuttle, Hayward, CA). […] Drug loading percentages were determined relative to the final polymer mixture weight: sofosbuvir (50%), daclastasvir (40%), ledipasvir (40%), and ribavirin (40%). […] Drug concentrations were then analyzed using an Agilent 1260 Infinity II HPLC system. […] For evaluation of the safety and residence time of the LA-DAAS, the animals were clinically assessed twice a day for evidence of GI obstruction including inappetence, abdominal distension, lack of stool, and vomiting. […]

[2] = Stability of drug-polymer pills in SGF (polymer protection metric); details: 3 days in SGF, 37° C., 200 rpm, n=3
Procedure: Drug-polymer pills were incubated in a shaking incubator at 37° C. and 200 rpm in 50 mL of SGF for 3 days with fluid replaced every day. Then, drug-polymer pills were transferred to acetonitrile for extraction of drug from the polymer pill. The average of extracted amount (n=3) was normalized to the average of extracted drug from drug-polymer pills placed directly in acetonitrile (n=3) to yield the polymer protection metric plotted. PCL protects 89.75% of sofosbuvir, 82.39% of daclatasvir, and 87.11% of ribavirin. Silicone protected 98.96% of ledipasvir.

[3] = Stability of DAAs in simulated gastric fluid (SGF, pH=2), HPLC
Procedure: FIGS. 17A-17C show stability of DAAs in simulated gastric fluid (SGF, pH=2), according to one set of embodiments. All DAAs were dissolved in SGF and placed in a shaking incubator (200 rpm, 37° C.). Samples were collected at defined time points for up to 4 weeks and analyzed by HPLC to quantify stability. […] FIG. 17A. Stability of sofosbuvir in SGF. FIG. 17B. Stability of daclatasvir in SGF. FIG. 17C. Stability of ribavirin in SGF. Error bars represent SD for n=3 samples in each group.

| stability in SGF ([3]; SGF pH=2, no HPLC signal detected at t=0) | polymer protection (drug extracted after SGF, normalized to pills placed directly in acetonitrile) ([2]; drug-silicone pill) [%] | SMILES | in vitro release rate from drug-polymer pills (trend, words) [1] | polymer protection (drug extracted after SGF, normalized to pills placed directly in acetonitrile) ([2]; drug-PCL pill) [%] | degradation in SGF ([3]; SGF pH=2, 37° C., 200 rpm, within 7 days) [%] |
| --- | --- | --- | --- | --- | --- |
| – | – | NC(=O)c1ncn([C@@H]2O[C@H](CO)[C@@H](O)[C@H]2O)n1 [ribavirin] | increased at higher PCL molecular weight and with a higher drug loading percentage | 87.11 | – |
| degraded immediately in acid | 98.96 | COC(=O)N[C@H](C(=O)N1CC2(CC2)C[C@H]1c1ncc(-c2ccc3c(c2)C(F)(F)c2cc(-c4ccc5nc([C@@H]6[C@H]7CC[C@H](C7)N6C(=O)[C@@H](NC(=O)OC)C(C)C)[nH]c5c4)ccc2-3)[nH]1)C(C)C [ledipasvir] | faster release rate | – | – |
| – | – | CC(C)OC(=O)[C@H](C)N[P@](=O)(OC[C@H]1O[C@@H](n2ccc(=O)[nH]c2=O)[C@](C)(F)[C@@H]1O)Oc1ccccc1 [sofosbuvir] | increased as the molecular weight of PCL increased from 25,000 to 80,000; also recorded: Increasing the surface area to volume ratio of the pill also increased the sofosbuvir release rate; also recorded: increases the release rate of sofosbuvir; also recorded: Drug release increases as the SA/V ratio increases | 89.75 | 95 |
